The subject of assay [1] is MCF7 (breast). The assay can be described thus: In vitro cytotoxic activity (MTT) assay, MCF7. The format is cell-based. The following applies: Homo sapiens, 96 hours exposure, read-out: IC50, 50% inhibition of cell proliferation. How it is done:
(§1) Compounds 1-15 were screened for their in vitro cytotoxic activity utilizing a 3-(4,5-dimethyl-thiazol-2-yl)-2,5-diphenyltetrazolium bromide (MTT) assay against selected cancer human cell lines consisting of PC3 (prostate), HCT116 (colon), A375 (melanoma), H1299 (lung), MIAPaCa-2 (pancreas), HL60 (leukemia), MCF7 (breast), MDA-MB-231 (breast) (T. Mosmann, J. Immunol. Meth., 1983, 65, 55-63). The cells were cultured at 37° C. in RMPI1640 medium supplemented with 10% fetal bovine serum, 50 IU/mL penicillin, and 50 μg/mL streptomycin in a 5% CO2 incubator. All cells were sub-cultured 3 times/week by trypsinization. Viable cells were seeded and allowed to adhere for 12 h before a test drug was added in 96-well plates at an initial density of 1.0×10^5 cells/mL. Tumour cell lines were separately exposed to various concentrations of the tested compounds followed by incubation at a temperature of 37° C. during 96 h inside a medium of fresh RMPI 1640. Cells were subsequently incubated at 37° C. using MTT at 0.5 mg/mL during 4 h. After removal of supernatant, formazan crystals were dissolved in isopropanol and the optical density was measured at 570 nm. CX-4945 was used as a positive control.

Assay [2] relates to HL60 (leukemia). The assay can be described thus: In vitro cytotoxic activity (MTT) assay, HL60. It counts as cell-based. The following applies: Homo sapiens, HL-60, 96 hours exposure, read-out: IC50, 50% inhibition of cell proliferation. How it is done: as §1
The test system of assay [3] is PC3 (prostate). The assay can be described thus: In vitro cytotoxic activity (MTT) assay, PC3. The format is cell-based. The following applies: Homo sapiens, 96 hours exposure, read-out: IC50, 50% inhibition of cell proliferation. How it is done: as §1
In assay [4] the test system is MIAPaCa-2 (pancreas). The assay can be described thus: In vitro cytotoxic activity (MTT) assay, MIAPaCa-2. The format is cell-based. The following applies: Homo sapiens, MIA PaCa-2, 96 hours exposure, read-out: IC50, 50% inhibition of cell proliferation. The protocol: as §1
Assay [5] concerns A375 (melanoma). In words: In vitro cytotoxic activity (MTT) assay, A375. The following applies: Homo sapiens, A-375, 96 hours exposure, read-out: IC50, 50% inhibition of cell proliferation. It counts as cell-based. The protocol: as §1
Assay [6] concerns HCT116 (colon). The assay can be described thus: In vitro cytotoxic activity (MTT) assay, HCT116. It counts as cell-based. The conditions noted are these: Homo sapiens, HCT-116, 96 hours exposure, read-out: IC50, 50% inhibition of cell proliferation. How it is done:
as §1

In assay [7] the test system is MDA-MB-231 (breast). In words: In vitro cytotoxic activity (MTT) assay, MDA-MB-231. It counts as cell-based. The conditions noted are these: Homo sapiens, 96 hours exposure, read-out: IC50, 50% inhibition of cell proliferation. How it is done: as §1
Assay [8] has as its target T1, recombinant human CK2 (RRββ-holoenzyme) (Homo sapiens, UniProt P68400).
T1 construct: purchased Millipore
In words: CK2 kinase assay ([γ-33P]ATP, filter plate). It counts as biochemical. The conditions noted are these: final ATP 15 μM, 10 min at 30° C.; read-out: protein kinase CK2 IC50. The protocol:
CK2 Kinase Assay was conducted using the protocol as described in Pierre F. et al; J. Med. Chem. 2011, 54, 635-654. The tested compounds in aqueous solution were added at a volume of 10 μL to a reaction mixture comprising 10 μL of assay dilution buffer (ADB; 20 mM MOPS, pH 7.2, 25 mM β-glycerol phosphate, 5 mM EGTA, 1 mM sodium orthovanadate, and 1 mM dithiothreitol), 10 μL of substrate peptide (RRRDDDSDDD, dissolved in ADB at a concentration of 1 mM), 10 μL of recombinant human CK2 (RRββ-holoenzyme, 25 ng dissolved in ADB; Millipore). Reactions were initiated by the addition of 10 μL of ATP solution (90% 75 mMMgCl2, 75 μM ATP (final ATP concentration:15 μM) dissolved in ADB; 10% [γ-33P] ATP (stock 1mCi/100 μL; 3000 Ci/mmol (Perkin-Elmer) and maintained for 10 min at 30° C. The reactions were quenched with 100 μL of 0.75% phosphoric acid and then transferred to and filtered through a phosphor cellulose filter plate (Millipore). After washing each well five times with 0.75% phosphoric acid, the plate was dried under vacuum for 5 min and, following the addition of 15 μL of scintillation fluid to each well, the residual radioactivity was measured using a Wallac […]. The IC50 values were derived from eight concentrations of test inhibitors.

Assay [9] concerns H1299 (lung). In words: In vitro cytotoxic activity (MTT) assay, H1299. The format is cell-based. The following applies: Homo sapiens, NCI-H1299, 96 hours exposure, read-out: IC50, 50% inhibition of cell proliferation. How it is done:
as §1

pIC50: −log10 of the molar value.

T1 sequence (P68400 whole entry): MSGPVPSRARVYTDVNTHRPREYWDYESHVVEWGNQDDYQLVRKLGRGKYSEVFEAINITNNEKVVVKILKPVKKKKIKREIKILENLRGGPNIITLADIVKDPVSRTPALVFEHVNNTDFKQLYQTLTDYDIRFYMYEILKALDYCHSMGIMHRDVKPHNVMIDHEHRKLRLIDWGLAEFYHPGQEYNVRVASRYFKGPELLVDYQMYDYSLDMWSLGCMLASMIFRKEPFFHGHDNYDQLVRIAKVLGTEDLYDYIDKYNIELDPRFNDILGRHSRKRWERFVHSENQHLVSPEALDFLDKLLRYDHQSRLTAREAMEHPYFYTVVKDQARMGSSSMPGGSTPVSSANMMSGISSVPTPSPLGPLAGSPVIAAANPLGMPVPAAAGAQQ
T1 sequence (P67870 whole entry partner): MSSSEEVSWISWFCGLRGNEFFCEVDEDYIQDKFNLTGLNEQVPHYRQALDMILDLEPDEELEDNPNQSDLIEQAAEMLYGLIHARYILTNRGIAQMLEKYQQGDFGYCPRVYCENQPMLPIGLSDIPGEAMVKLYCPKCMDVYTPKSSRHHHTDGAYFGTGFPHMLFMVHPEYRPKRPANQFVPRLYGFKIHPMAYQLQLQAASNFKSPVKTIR

For the compound `O=C(O)c1cc2c(nc(Nc3cccc(Cl)c3)c3cnccc32)[nH]1` [Compound 1, 5-((3-chlorophenyl)amino)-3H-pyrrolo[2,3-c][2,7]naphthyridine-2-carboxylic acid], the pIC50 in assay [1] was 5.48; in assay [2], 5.62; in assay [3], 5.59; in [4] it was 6.10; in assay [5], 5.57; in assay [6] it was 6.05. Further, the pIC50 is 5.39 in [7], 7.80 in [8] and 5.96 in assay [9].

The values are drawn from patent US11884667B1, “Substituted pyrrolo[2,3-c][2,7]naphthyridines as CK2 inhibitors” (KING FAISAL UNIVERSITY, priority 2023, dated 2024).
